Measurements published in US5723616A, “Process for the preparation of a growth hormone secretagogue” (priority 1996, dated 1998).
≈ marks a conversion by molar mass, not a printed value. Read-outs that look alike come from different tables or passages of the source.

Experiments:
[1] = solubility of the sulfonamide in various mixtures of toluene and n-PrOH, determined by HPLC assay; type: physicochemical; details: organic solvent or mixture, read-out: solubility of 1
Procedure: The temperature of both the head and pot rose from 94° C. to 98° C. during the solvent switch. Toluene and n-PrOH form an azeotrope boiling at 97.2° C. composed of 47.5% toluene and 52.5% n-PrOH. The mixture was allowed to cool gradually to 20° C. over 3h and aged for 12 h. […] The solubility of the sulfonamide in various mixtures of toluene and n-PrOH has been determined by HPLC assay: […]

[2] = hygroscopicity observed at filtration of the wet crystals; type: physicochemical; details: wet crystals during filtration (N2 essential)
Procedure: The volume of the solution of 15 from the previous step was adjusted to 60 L with ethyl acetate and EtOH (4.8 L) was added. The MsOH (316 mL) was added in 3 L of EtOAc at 45° C. To the deep red homogeneous solution was added 496 g of the title compound Form I seed (10% seed based on the weight of the free amine was employed). The temperature rose to ca. 48° C. and the reaction was aged at 52° C. for 1.5 hours. Analysis indicated complete conversion to the title compound (Form I). (At less than 10% seed longer age (>3 hours) was required). The slurry was allowed to cool to 20° C. overnight and was filtered in a centrifuge under N2. The cake was washed with 20 L of 8% EtOH in EtOAc. […] The batch was dried at 35° C. under vacuum to afford 2.7 Kg (56% overall yield) of the title compound (Form I) (99.9 A % purity; <0.1% enantiomer).

solubility ([1]; 5% toluene in n-proh) | solubility ([1]; 10% toluene in n-proh) | solubility ([1]; 20% toluene in n-proh) | solubility ([1]; 25% toluene in n-proh) | solubility ([1]; 0% toluene in n-PrOH) | hygroscopicity of the wet crystals [2] | SMILES
3020 µg/mL (≈ 7.54 mM) | 4230 µg/mL (≈ 10.6 mM) | 7510 µg/mL (≈ 18.8 mM) | 10300 µg/mL (≈ 25.7 mM) | 2360 µg/mL (≈ 5.89 mM) | – | CS(=O)(=O)N1CC2(CCN(C(=O)OCc3ccccc3)CC2)c2ccccc21 [Compound 1, CBZ-Spiroindoline-methanesulfonamide]
– | – | – | – | – | very hygroscopic | CC(C)(N)C(=O)N[C@H](COCc1ccccc1)C(=O)N1CCC2(CC1)CN(S(C)(=O)=O)c1ccccc12 [Form I, N-[1(R)-[(1,2-dihydro-1-methanesulfonyl-spiro[3H-indole-3,4'-piperdin]-1'-yl)carbonyl]-2-(phenylmethyl-oxy)ethyl]-2-amino-2-methylpropanamide methanesulfonate]
